Several values for one entry are separate records, joined by “and”; a condition that tells them apart may be missing. Identical values can stand only once.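 A five-concentration, 48-hour dose response in 96-well plates underlies each endpoint, interpolated linearly between surrounding concentrations. Abbreviation: GI50, concentration required for 50% inhibition of growth. Definition used: TGI = concentration required for complete inhibition of growth.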

Data on 36 molecules can be found in PubChem BioAssay (NCI).

This experiment relates to MDA-MB-468 breast. The experiment is described as follows: DTP human tumour cell line panel, 48 h.
Usually GI50 stands for the concentration giving 50% growth inhibition. By TGI is commonly meant the concentration giving total growth inhibition. A lower TGI goes with greater sensitivity of the cells. Regarding `COc1ccc(-c2nn(-c3cccc(Cl)c3)cc2-c2cc(-c3ccccc3)[nH]c(=O)c2C#N)cc1`, the GI50 was 1550 nM and the TGI is 7510 nM.
For the molecule `O=C(/C(=C\c1c(-c2ccccc2)[nH]c2ccccc12)S(=O)(=O)c1ccccc1)c1ccccc1`, the GI50 was 4180 nM and the TGI was greater than 100000 nM.
For `CO[C@H]1Nc2c(ccc(C)c2O)C(=O)N2C=C(/C=C/C(N)=O)C[C@@H]12` the same measures were 20.8 nM and 46.5 nM.
Consider `N#CCCN1C/C(=C/c2ccc(Br)cc2)C(=O)/C(=C/c2ccc(Br)cc2)C1`, for which the GI50 was 1500 nM and the TGI came out at 3620 nM.
Turning to `COc1cc(/C=C\c2cc(OC)c(OC)c(OC)c2)cc(N/C=C\C(=O)c2c[nH]c3ccccc23)c1OC`, the GI50 is 1280 nM and the TGI worked out at 3660 nM.
With `C#CCOc1cccc(Nc2ncnc3c(NC(=O)C=C)cccc23)c1`, the GI50 is 4910 nM and the TGI was 25400 nM.
`CC(C)c1[nH]nc2c1N=C(c1ccccc1Cl)c1cc([N+](=O)[O-])ccc1N2`: the GI50 is 2930 nM and the TGI stood at 15700 nM.
Take `COc1ccc(/C(C)=C(\c2ccc(OCCN3CCCCCC3)cc2)c2ccc(OC(=O)C3CCCCC3)cc2)cc1`: the GI50 was 737 nM and the TGI turned out to be 2840 nM.
With `ClCCN(CCCl)c1ccc(CNc2ccccc2)cc1`, the GI50 is 2140 nM and the TGI was 23400 nM.
Take `N=C(N)c1ccc(-c2ccc(-c3cccs3)s2)cc1`: the GI50 was 56.4 nM and the TGI came out at 1150 nM.
For the molecule `Cc1cc(Nc2nc(-c3cn(-c4ccc(Cl)cc4)nn3)nc3ccccc23)n[nH]1`, the GI50 was 10400 nM and the TGI came out at 30500 nM.
For `Cc1ccc(OCCOCCOCCOCCOc2ccc(C)n(O)c2=S)c(=S)n1O` the same measures were less than 17.4 nM and 5330 nM.
With `O=C(NCc1ccc(Cn2c(=O)sn(-c3ccccc3)c2=O)cc1)OCc1ccc2cccc(O)c2n1`, the GI50 was 552 nM and the TGI was found to be 2140 nM.
For `Nc1cc2c(cc1Br)[nH]c(=O)c1ccccc12` the same measures were 1210 nM and 5410 nM.
For `c1ccc2c(c1)[nH]c1c2cc[n+]2cc3c(cc12)CCCC3` the same measures were 1120 nM and 2980 nM.
For the molecule `O=C1Nc2ccccc2/C1=C1\CCc2cc(O)ccc21`, the GI50 was 3330 nM and the TGI is greater than 21800 nM.
As to `COc1ccc(-c2cnnn2-c2nonc2-n2cccc2)cc1`, the GI50 is 130 nM and the TGI turned out to be 721 nM.
For `O=C(Nc1cc(Nc2ncccc2-c2ncnc3nc[nH]c23)ccc1F)c1cc(C(F)(F)F)cc(C(F)(F)F)c1` the same measures were 3000 nM and 8360 nM.
Regarding `COc1ccc(-c2ccc3c(N4CCOC[C@@H]4C)nc(N4CCOC[C@@H]4C)nc3n2)cc1CO`, the GI50 was 5.33 nM and 18 nM; the TGI is 19.9 nM and 195 nM.
As to `CC1(C)CN=C(NN=C(/C=C/c2ccc(C(F)(F)F)cc2)/C=C/c2ccc(C(F)(F)F)cc2)NC1`, the GI50 is 1280 nM and the TGI worked out at 2720 nM.
For `C=CC(=O)N1CN(C(=O)C=C)CN(C(=O)C=C)C1` the same measures were 1460 nM and 3400 nM.
For the molecule `CCN(CC)CCCCCCNc1cccc2cc(Br)cnc12`, the GI50 was 1960 nM and the total growth inhibition concentration (TGI) is 4460 nM.
For `CC(C)[C@H](O)C(=O)N[C@@H](C)C(=O)N[C@@H]1C(=O)N(C)CCc2ccccc21` the same measures were greater than 100000 nM and greater than 100000 nM.
For `Cc1cn(-c2cc(C(=O)Nc3cccc(-n4ccc5c(NC(=O)c6ccccc6)nccc54)c3)cc(C(F)(F)F)c2)cn1` the same measures were 229 nM and 1040 nM.
Take `N[C@H](CCC(=O)N[C@@H](Cc1c[nH]c2ccccc12)C(=O)O)C(=O)O`: the GI50 was greater than 100000 nM and the TGI was greater than 100000 nM.
For `NNCCc1ccc(NC(=O)CCCc2ccc(C(=O)Nc3ccccc3N)cc2)cc1`, the GI50 is 10900 nM and the TGI was 40100 nM.
With `CN(C)C(=S)SSC(=S)N(C)C`, the GI50 was 17100 nM and the TGI is 37500 nM.
For `O=C(NNc1nc2cc(F)cc(F)c2n2cccc12)c1ncccn1` the same measures were 590 nM and 3790 nM.
For the molecule `Cc1cc(N/N=C/c2ccccn2)nc2ccccc12`, the GI50 is 252 nM and the TGI stood at 2600 nM.
For `CCCCCCCCCCNC(=O)CI` the same measures were 2140 nM and 4860 nM.
Consider `OC(c1cc(-c2ccc(C(F)(F)F)cc2)nc(C(F)(F)F)c1)C1CCCCN1` (configuration not stated), for which the GI50 was 1610 nM and 1500 nM; the TGI was 3330 nM and 2830 nM.
Consider `Cn1cc(-c2csc(-c3cn(CCCCN4CCCCC4)c4ccccc34)n2)c2cccnc21`, for which the GI50 was 1610 nM and the TGI was 3290 nM.
For `COc1ccc(-c2nc(-c3cc(OC)cc(OC)c3)[nH]c2-c2ccc(OC)cc2)cc1` the same measures were 2780 nM and greater than 100000 nM.
For `CC(C)(C)[Si](C)(C)OC1[C@@H](CNC(=O)NC(=O)CCl)O[C@@H](n2cnc3c(N)ncnc32)[C@H]1O[Si](C)(C)C(C)(C)C` (some centres not stated) the same measures were 802 nM and 1710 nM.
In the case of `COc1cc2c(Nc3cc(Cl)c(OC)c(Cl)c3)c(C#N)cnc2cc1OCCCN1CCN(C)CC1`, the GI50 is 267 nM and the TGI was found to be 1640 nM.
For `Nc1cc(Br)c(-c2nnc(CCC(=O)c3nc4ccccc4[nH]3)o2)c(Br)c1` the same measures were 1930 nM and 6970 nM.
